This is an account of results in US20230210853A1 (Halia Therapeutics, Inc., priority 2020, published 2023).

As a reminder, the IC50 is the midpoint of a concentration-inhibition curve.

T1 sequence (Q8TDX7 whole entry): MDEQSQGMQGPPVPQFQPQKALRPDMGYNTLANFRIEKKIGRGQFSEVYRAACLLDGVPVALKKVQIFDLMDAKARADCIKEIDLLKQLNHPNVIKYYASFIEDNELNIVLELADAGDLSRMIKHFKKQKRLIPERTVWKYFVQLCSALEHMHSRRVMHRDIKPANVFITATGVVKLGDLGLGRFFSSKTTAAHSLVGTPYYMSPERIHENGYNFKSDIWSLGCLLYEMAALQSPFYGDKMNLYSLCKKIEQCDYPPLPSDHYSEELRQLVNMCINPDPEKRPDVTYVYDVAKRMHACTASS

One test has as its target T1, full-length recombinant human NEK7 (Homo sapiens, UniProt Q8TDX7).
T1 construct: full-length recombinant human NEK7; GST (N); purchased SignalChem N09-10G; host or cells: Sf9 insect cells (baculovirus)
In words: NEK7 enzymatic assay ([33P]-ATP, casein substrate). The class given is biochemical. The note with it: Table 2e; recombinant human NEK7, casein substrate. The essentials: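 GST-tagged enzyme, baculovirus-expressed in Sf9 cells, was mixed with casein in 20 mM Hepes pH 7.5, 10 mM MgCl2, 1 mM EGTA, 0.02% Brij35, 2 mM DTT, 1% DMSO. Compounds (3-fold series, 10 μM–0.5 nM) were preincubated 20 min at RT, then [33P]-ATP was added for 2 h at RT. P81 filter-bound radioactivity was expressed as % of vehicle activity and fitted to IC50.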
For the molecule `O=C(Nc1ccc(CN2CCOCC2)c(F)c1)Nc1ccc(Oc2ccnc3[nH]cc(Cl)c23)cc1F` [Ie-2, 1-(4-((3-chloro-1H-pyrrolo[2,3-b]pyridin-4-yl)oxy)-2-fluorophenyl)-3-(3-fluoro-4-(morpholinomethyl)phenyl)urea], the IC50 was above 1500 nM. For the molecule `Cc1cn(-c2cc(NC(=O)Nc3ccc(Oc4ccnc5[nH]cc(Cl)c45)cc3F)cc(C(F)(F)F)c2)cn1` [Ie-3, 1-(4-((3-Chloro-1H-pyrrolo[2,3-b]pyridin-4-yl)oxy)-2-fluorophenyl)-3-(3-(4-methyl-1H-1-imidazol-1-yl)-5-(TRIFLUOROMETHYL)phenyl)urea], the IC50 is 501 to 1500 nM. The same measure, in the same setting: the value for `O=C(Nc1ccc(CN2CCOCC2)c(C(F)(F)F)c1)Nc1ccc(Oc2ccnc3[nH]cc(Cl)c23)cc1F` [Ie-4, 1-(4-((3-Chloro-1H-pyrrolo[2,3-b]pyridin-4-yl)oxy)-2-fluorophenyl)-3-(4-(morpholinomethyl)-3-(trifluoromethyl)phenyl)UR EA] was above 1500 nM.

As for `CN1CCN(Cc2ccc(NC(=O)Nc3ccc(Oc4ccnc5[nH]cc(Cl)c45)cc3F)cc2F)CC1` [Ie-5, 1-(4-((3-chloro-1H-pyrrolo[2,3-b]pyridin-4-yl)oxy)-2-fluorophenyl)-3-(3-fluoro-4-((4-methylpiperazin-1-yl)methyl)phenyl)urea], the IC50 is above 1500 nM.

`CN1CCN(c2cc(NC(=O)Nc3ccc(Oc4ccnc5[nH]cc(Cl)c45)cc3F)cc(C(F)(F)F)c2)CC1` [Ie-6, 1-(4-((3-chloro-1H-pyrrolo[2,3-b]pyridin-4-yl)oxy)-2-fluorophenyl)-3-(3-(4-methylpiperazin-1-yl)-5-(trifluoromethyl)phenyl)urea]: the IC50 is above 1500 nM. In the case of `CN(C)Cc1ccc(NC(=O)Nc2ccc(Oc3ccnc4[nH]cc(Cl)c34)cc2F)cc1C(F)(F)F` [Ie-7, 1-(4-((3-chloro-1H-pyrrolo[2,3-b]pyridin-4-yl)oxy)-2-fluorophenyl)-3-(4-((dimethylamino)methyl)-3-(trifluoromethyl)phenyl)urea], the IC50 was above 1500 nM. Still for that read-out and setting: as for `CN(C)C1CN(Cc2ccc(NC(=O)Nc3ccc(Oc4ccnc5[nH]cc(Cl)c45)cc3F)cc2C(F)(F)F)C1` [Ie-8, 1-(4-((3-chloro-1H-pyrrolo[2,3-b]pyridin-4-yl)oxy)-2-fluorophenyl)-3-(4-((3-(dimethylamino)azetidin-1-yl)methyl)-3-(trifluoromethyl)phenyl)urea], the figure is above 1500 nM; as for `CC(C)N1CCN(Cc2ccc(NC(=O)Nc3ccc(Oc4ccnc5[nH]cc(Cl)c45)cc3F)cc2C(F)(F)F)CC1` [Ie-10, 1-(4-((3-chloro-1H-pyrrolo[2,3-b]pyridin-4-yl)oxy)-2-fluorophenyl)-3-(4-((4-isopropylpiperazin-1-yl)methyl)-3-(trifluoromethyl)phenyl)urea], 301 to 500 nM; as for `O=C(Nc1ccc(CN2CCN(C3CC3)CC2)c(C(F)(F)F)c1)Nc1ccc(Oc2ccnc3[nH]cc(Cl)c23)cc1F` [Ie-11, 1-(4-((3-chloro-1H-pyrrolo[2,3-b]pyridin-4-yl)oxy)-2-fluorophenyl)-3-(4-((4-cyclopropylpiperazin-1-yl)methyl)-3-(trifluoromethyl)phenyl)urea], above 1500 nM.

On to `CN1CCN(Cc2ccc(NC(=O)Nc3ccc(Oc4ccnc5[nH]cc(Cl)c45)cc3F)cc2Cl)CC1` [Ie-12, 1-(4-((3-chloro-1H-pyrrolo[2,3-b]pyridin-4-yl)oxy)-2-fluorophenyl)-3-(3-chloro-4-((4-methylpiperazin-1-yl)methyl)phenyl)urea], for which the IC50 is above 1500 nM. Turning to `CC(c1ccc(NC(=O)Nc2ccc(Oc3ccnc4[nH]cc(Cl)c34)cc2F)cc1C(F)(F)F)N1CCN(C)CC1` (stereo not drawn) [Ie-13, 1-(4-((3-chloro-1H-pyrrolo[2,3-b]pyridin-4-yl)oxy)-2-fluorophenyl)-3-(4-(1-(4-methylpiperazin-1-yl)ethyl)-3-(trifluoromethyl)phenyl)urea], the IC50 is 501 to 1500 nM.

Consider `CN1CCN(c2ccc(NC(=O)Nc3ccc(Oc4ccnc5[nH]cc(Cl)c45)cc3F)cc2C(F)(F)F)CC1` [Ie-14, 1-(4-((3-chloro-1H-pyrrolo[2,3-b]pyridin-4-yl)oxy)-2-fluorophenyl)-3-(4-(4-methylpiperazin-1-yl)-3-(trifluoromethyl)phenyl)urea], for which the IC50 was above 1500 nM. Still for that read-out and setting: as for `CN1CCN(C(=O)c2ccc(NC(=O)Nc3ccc(Oc4ccnc5[nH]cc(Cl)c45)cc3F)cc2C(F)(F)F)CC1` [Ie-15, 1-(4-((3-chloro-1H-pyrrolo[2,3-b]pyridin-4-yl)oxy)-2-fluorophenyl)-3-(4-(4-methylpiperazine-1-carbonyl)-3-(trifluoromethyl)phenyl)urea], the figure is above 1500 nM.

Still in this test, the particulars now being: Table 2d; recombinant human NEK7, casein substrate.
On to `Nc1ncnc2c1c(-c1ccc(NC(=O)Nc3ccc(CN4CCOCC4)c(F)c3)c(F)c1)nn2C1CC1` [Id-47, 1-(4-(4-amino-1-cyclopropyl-1H-pyrazolo[3,4-d]pyrimidin-3-yl)-2-fluorophenyl)-3-(3-fluoro-4-(morpholinomethyl)phenyl)urea], for which the IC50 was above 1500 nM.

As for `CN1CCN(Cc2ccc(NC(=O)Nc3ccc(-c4nn(C5CC5)c5ccnc(N)c45)cn3)cc2C(F)(F)F)CC1` [Id-50, 1-(5-(4-amino-1-cyclopropyl-1H-pyrazolo[4,3-c]pyridin-3-yl)pyridin-2-yl)-3-(4-((4-methylpiperazin-1-yl)methyl)-3-(trifluoromethyl)phenyl)urea], the IC50 lay in the range of 301 to 500 nM.

For the molecule `CN1CCC(=Cc2ccc(NC(=O)Nc3ccc(-c4cn(C5CC5)c5ncnc(N)c45)cc3F)cc2C(F)(F)F)CC1` [Id-51, 1-(4-(4-amino-7-cyclopropyl-7H-pyrrolo[2,3-d]pyrimidin-5-yl)-2-fluorophenyl)-3-(4-((1-methylpiperidin-4-ylidene)methyl)-3-(trifluoromethyl)phenyl)urea], the IC50 was in the range of 501 to 1500 nM. Still for that read-out and setting: as for `COc1cc(CN2CCN(C)CC2)ccc1NC(=O)Nc1ccc(-c2cn(C3CC3)c3ncnc(N)c23)cc1F` [Id-52, 1-(4-(4-amino-7-cyclopropyl-7H-pyrrolo[2,3-d]pyrimidin-5-yl)-2-fluorophenyl)-3-(2-methoxy-4-((4-methylpiperazin-1-yl)methyl)phenyl)urea], the figure is above 1500 nM; as for `CN1CCN(Cc2ccc(NC(=O)Nc3ccc(-c4cn(C5CC5)c5ncnc(N)c45)cc3F)cc2C#N)CC1` [Id-53, 1-(4-(4-amino-7-cyclopropyl-7H-pyrrolo[2,3-d]pyrimidin-5-yl)-2-fluorophenyl)-3-(3-cyano-4-((4-methylpiperazin-1-yl)methyl)phenyl)urea], above 1500 nM. On the same count and under the same terms, as for `CCN1CCN(Cc2ccc(NC(=O)Nc3ccc(-c4cn(C5CC5)c5ncnc(N)c45)cc3Cl)cc2C(F)(F)F)CC1` [Id-54, 1-(4-(4-amino-7-cyclopropyl-7H-pyrrolo[2,3-d]pyrimidin-5-yl)-2-chlorophenyl)-3-(4-((4-ethylpiperazin-1-yl)methyl)-3-(trifluoromethyl)phenyl)urea], the figure is below 150 nM; as for `Cc1cc(NC(=O)Nc2ccc(-c3nn(C4CC4)c4ccnc(N)c34)cc2F)ccc1N1CCOCC1` [Id-55, 1-(4-(4-amino-1-cyclopropyl-1H-pyrazolo[4,3-c]pyridin-3-yl)-2-fluorophenyl)-3-(3-methyl-4-morpholino-phenyl)urea], above 1500 nM; as for `CN1CCN(Cc2ccc(NC(=O)Nc3ccc(-c4cn(C5CC5)c5ncnc(N)c45)cc3F)cc2)CC1` [Id-56], above 1500 nM. The same measure, in the same setting: as for `CCN1CCN(Cc2ccc(NC(=O)Nc3ccc(-c4cn(C5CC5)c5ncnc(N)c45)cc3F)cc2)CC1` [Id-57], the figure is above 1500 nM; as for `CN1CCN(Cc2ccc(NC(=O)Nc3ccc(-c4cn(C5CC5)c5ncnc(N)c45)cc3F)cc2C(F)F)CC1` [Id-58], above 1500 nM. Regarding `CCN1CCN(Cc2ccc(NC(=O)Nc3ccc(-c4cn(C5CC5)c5ncnc(N)c45)cc3F)cc2C(F)F)CC1` [Id-59], the IC50 was above 1500 nM. Same read-out and setting: the value for `CN1CCC(Oc2ncc(NC(=O)Nc3ccc(-c4cn(C5CC5)c5ncnc(N)c45)cc3F)cc2C(F)(F)F)CC1` [Id-60] was above 1500 nM. On the same count and under the same terms, as for `Nc1ncnc2c1c(-c1ccc(NC(=O)Nc3ccc(CN4CCN(C5CC5)CC4)c(C(F)(F)F)c3)c(F)c1)cn2C1CC1` [Id-61], the figure is 301 to 500 nM; as for `CC(C)N1CCN(Cc2ccc(NC(=O)Nc3ccc(-c4cn(C5CC5)c5ncnc(N)c45)cc3F)cc2C(F)(F)F)CC1` [Id-62], below 150 nM. Still for that read-out and setting: the value for `CN1CC2CC1CN2Cc1ccc(NC(=O)Nc2ccc(-c3cn(C4CC4)c4ncnc(N)c34)cc2F)cc1C(F)(F)F` (stereo not drawn) [Id-63] was below 150 nM; that for `CN1CCN(Cc2ccc(NC(=O)Nc3ccc(-c4cn(C5CC5)c5ncnc(N)c45)cc3F)c(F)c2)CC1` [Id-64] was 501 to 1500 nM. Regarding `Nc1ncnc2c1c(-c1ccc(NC(=O)Nc3ccc(CN4CCNCC45CC5)c(C(F)(F)F)c3)c(F)c1)cn2C1CC1` [Id-65, 1-(4-((4,7-diazaspiro[2,5]octan-4-yl)methyl)-3-(trifluoromethyl)phenyl)-3-(4-(4-amino-7-cyclopropyl-7H-pyrrolo[2,3-d]pyrimidin-5-yl)-2-fluorophenyl)urea], the IC50 was below 150 nM. Still for that read-out and setting: the value for `CN1CCN(Cc2ccc(NC(=O)Nc3ncc(-c4cn(C5CC5)c5ncnc(N)c45)cc3F)cc2C(F)(F)F)CC1` [Id-66] was below 150 nM; that for `CN1CCN(Cc2ncc(NC(=O)Nc3ccc(-c4cn(C5CC5)c5ncnc(N)c45)cc3F)cc2C(F)(F)F)CC1` [Id-67] was below 150 nM. As for `CN(C)C1CCN(Cc2ccc(NC(=O)Nc3ccc(-c4cn(C5CC5)c5ncnc(N)c45)cc3F)cc2C(F)(F)F)CC1` [Id-68], the IC50 was below 150 nM. As for `CC1CN(C)CCN1Cc1ccc(NC(=O)Nc2ccc(-c3cn(C4CC4)c4ncnc(N)c34)cc2F)cc1C(F)(F)F` (stereo not drawn) [Id-69], the IC50 fell in the range of 151 to 300 nM. Same read-out and setting: the value for `CN1CCN(Cc2ccc(NC(=O)Nc3ccc(-c4cn(CCO)c5ncnc(N)c45)cc3F)cc2C(F)(F)F)CC1` [Id-70] was below 150 nM; that for `Nc1ncnc2c1c(-c1ccc(NC(=O)Nc3ccc(CN4CCN(CCO)CC4)c(C(F)F)c3)c(F)c1)cn2C1CC1` [Id-71] was below 150 nM.
